According to ChEMBL document CHEMBL1201862, “PubChem BioAssay data set” (2004):
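Interpolation was linear, between the two tested concentrations surrounding the appropriate level; five concentrations were tested over 48 hours in 96-well plates. Abbreviation: GI50, concentration required for 50% inhibition of growth.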 The source made the active and inactive calls. No stated cut-off is given here; in the data, active = GI50 up to about 1.1 µM and inactive = higher.

Key:
Assay in all cases: growth of human tumour cells (NCI), 48 h
786-0 = tested on: 786-0
A549 = tested on: A549
ACHN = tested on: ACHN
BT-549 = tested on: BT-549
CAKI-1 = tested on: CAKI-1
COLO 205 = tested on: COLO 205
DU-145 = tested on: DU-145
EKVX = tested on: EKVX
HCT-116 = tested on: HCT-116
HCT-15 = tested on: HCT-15
HL-60 = tested on: HL-60
HOP-62 = tested on: HOP-62
HOP-92 = tested on: HOP-92
HT-29 = tested on: HT-29
Hs-578T = tested on: Hs-578T
IGROV-1 = tested on: IGROV-1
K562 = tested on: K562
KM12 = tested on: KM12
LOX IMVI = tested on: LOX IMVI
M14 = tested on: M14
MCF7 = tested on: MCF7
MDA-MB-231 = tested on: MDA-MB-231
MDA-MB-435 = tested on: MDA-MB-435
MOLT-4 = tested on: MOLT-4
Malme-3M = tested on: Malme-3M
NCI-H226 = tested on: NCI-H226
NCI-H23 = tested on: NCI-H23
NCI-H460 = tested on: NCI-H460
NCI-H522 = tested on: NCI-H522
NCI/ADR-RES = tested on: NCI/ADR-RES
OVCAR-3 = tested on: OVCAR-3
OVCAR-4 = tested on: OVCAR-4
OVCAR-5 = tested on: OVCAR-5
OVCAR-8 = tested on: OVCAR-8
PC-3 = tested on: PC-3
RXF 393 = tested on: RXF 393
SF-268 = tested on: SF-268
SF-295 = tested on: SF-295
SF-539 = tested on: SF-539
SK-MEL-28 = tested on: SK-MEL-28
SK-MEL-2 = tested on: SK-MEL-2
SK-MEL-5 = tested on: SK-MEL-5
SK-OV-3 = tested on: SK-OV-3
SN12C = tested on: SN12C
SNB-19 = tested on: SNB-19
SNB-75 = tested on: SNB-75
SR = tested on: SR
SW-620 = tested on: SW-620
T47D = tested on: T47D
TK-10 = tested on: TK-10
U-251 = tested on: U-251
UACC-257 = tested on: UACC-257
UACC-62 = tested on: UACC-62
UO-31 = tested on: UO-31
A498 = tested on: A498
CCRF-CEM = tested on: CCRF-CEM
HCC 2998 = tested on: HCC 2998
RPMI-8226 = tested on: RPMI-8226

`Cc1ccc2c(c1)C(O)(c1ccccc1)CCS2` (stereo not given) was tested, and the GI50 (786-0) was 32.5 µM (inactive), the GI50 (A549) was 32.8 µM (inactive) and the GI50 (ACHN) was 27.2 µM (inactive). The GI50 (BT-549) was 27.3 µM (inactive), the GI50 (CAKI-1) was 22 µM (inactive) and the GI50 (COLO 205) was 30.3 µM (inactive). For the same molecule, the GI50 (DU-145) was 46.3 µM (inactive), the GI50 (EKVX) was 51.4 µM (inactive) and the GI50 (HCT-116) was 20.8 µM (inactive). For the same molecule, the GI50 (HCT-15) was 19.5 µM, the GI50 (HL-60) was 28.2 µM (inactive) and the GI50 (HOP-62) was 33.7 µM (inactive). For the same molecule, the GI50 (HOP-92) was 17.7 µM (inactive), the GI50 (HT-29) was 25.4 µM (inactive) and the GI50 (Hs-578T) was 34.1 µM (inactive). For the same molecule, the GI50 (IGROV-1) was 20.6 µM (inactive), the GI50 (K562) was 20.2 µM (inactive) and the GI50 (KM12) was 22.6 µM (inactive). The GI50 (LOX IMVI) was 19.9 µM (inactive), the GI50 (M14) was 25.4 µM (inactive) and the GI50 (MCF7) was 39.4 µM (inactive). The GI50 (MDA-MB-231) was 18 µM (inactive), the GI50 (MDA-MB-435) was 27.7 µM (inactive) and the GI50 (MOLT-4) was 15.3 µM (inactive). For the same molecule, the GI50 (Malme-3M) was 32.9 µM (inactive), the GI50 (NCI-H226) was 27.5 µM (inactive) and the GI50 (NCI-H23) was 28.5 µM (inactive). The GI50 (NCI-H460) was 34.8 µM (inactive), the GI50 (NCI-H522) was 19.7 µM (inactive) and the GI50 (NCI/ADR-RES) was 34 µM (inactive). For the same molecule, the GI50 (OVCAR-3) was 21.3 µM (inactive), the GI50 (OVCAR-4) was 43.4 µM (inactive) and the GI50 (OVCAR-5) was 27.6 µM (inactive). The GI50 (OVCAR-8) was 36.7 µM (inactive), the GI50 (PC-3) was 25.8 µM (inactive) and the GI50 (RXF 393) was 68.5 µM (inactive). The GI50 (SF-268) was 38.4 µM (inactive), the GI50 (SF-295) was 30.1 µM (inactive) and the GI50 (SF-539) was 20.2 µM (inactive). For the same molecule, the GI50 (SK-MEL-28) was 37.6 µM (inactive), the GI50 (SK-MEL-2) was 25.2 µM (inactive) and the GI50 (SK-MEL-5) was 29 µM (inactive). For the same molecule, the GI50 (SK-OV-3) was > 100 µM (inactive), the GI50 (SN12C) was 32.6 µM (inactive) and the GI50 (SNB-19) was 59.6 µM (inactive). The GI50 (SNB-75) was 48.2 µM (inactive), the GI50 (SR) was 18.3 µM (inactive) and the GI50 (SW-620) was 31 µM (inactive). The GI50 (T47D) was 28.2 µM (inactive), the GI50 (TK-10) was 32.1 µM (inactive) and the GI50 (U-251) was 21.7 µM (inactive). The GI50 (UACC-257) was 42 µM (inactive), the GI50 (UACC-62) was 22.4 µM (inactive) and the GI50 (UO-31) was 19.2 µM (inactive).
`CCC[C@H](C)C[C@H](C)C[C@H](C)/C=C(\C)[C@@H](O)[C@@H](C)C(=O)CC` was tested, and the GI50 (786-0) was 20.1 µM (inactive), the GI50 (A498) was 25.5 µM (inactive) and the GI50 (A549) was 19.9 µM (inactive). The GI50 (ACHN) was 21.9 µM (inactive), the GI50 (BT-549) was 23.4 µM (inactive) and the GI50 (CAKI-1) was 22.4 µM (inactive). The GI50 (CCRF-CEM) was 24.3 µM (inactive), the GI50 (DU-145) was 23.5 µM (inactive) and the GI50 (EKVX) was 18.8 µM (inactive). The GI50 (HCC 2998) was 17 µM (inactive), the GI50 (HCT-116) was 17.5 µM (inactive) and the GI50 (HCT-15) was 21 µM. The GI50 (HL-60) was 17.9 µM (inactive), the GI50 (HOP-62) was 20.4 µM (inactive) and the GI50 (HOP-92) was 20.8 µM (inactive). For the same molecule, the GI50 (HT-29) was 19.5 µM (inactive), the GI50 (Hs-578T) was 25 µM (inactive) and the GI50 (IGROV-1) was 19.3 µM (inactive). The GI50 (K562) was 18.3 µM (inactive), the GI50 (KM12) was 20.2 µM (inactive) and the GI50 (LOX IMVI) was 20.4 µM (inactive). The GI50 (M14) was 19.8 µM (inactive), the GI50 (MCF7) was 21.3 µM (inactive) and the GI50 (MDA-MB-231) was 25.3 µM (inactive). For the same molecule, the GI50 (MDA-MB-435) was 20.6 µM (inactive), the GI50 (MOLT-4) was 21.4 µM (inactive) and the GI50 (Malme-3M) was 18.5 µM (inactive). The GI50 (NCI-H226) was 21 µM (inactive), the GI50 (NCI-H23) was 18.9 µM (inactive) and the GI50 (NCI-H460) was 24 µM (inactive). The GI50 (NCI-H522) was 17.6 µM (inactive), the GI50 (NCI/ADR-RES) was 17 µM (inactive) and the GI50 (OVCAR-3) was 19.7 µM (inactive). For the same molecule, the GI50 (OVCAR-4) was 19.2 µM (inactive), the GI50 (OVCAR-5) was 19.9 µM (inactive) and the GI50 (OVCAR-8) was 20.3 µM (inactive). The GI50 (PC-3) was 20 µM (inactive), the GI50 (RPMI-8226) was 23.2 µM (inactive) and the GI50 (RXF 393) was 20.7 µM (inactive). The GI50 (SF-268) was 20.9 µM (inactive), the GI50 (SF-295) was 22.9 µM (inactive) and the GI50 (SF-539) was 21 µM (inactive). The GI50 (SK-MEL-28) was 18.7 µM (inactive), the GI50 (SK-MEL-2) was 24.9 µM (inactive) and the GI50 (SK-MEL-5) was 18.9 µM (inactive). The GI50 (SK-OV-3) was 36.2 µM (inactive), the GI50 (SN12C) was 18.8 µM (inactive) and the GI50 (SNB-19) was 20.3 µM (inactive). The GI50 (SNB-75) was 49.9 µM (inactive), the GI50 (SW-620) was 20.3 µM (inactive) and the GI50 (T47D) was 23.6 µM (inactive). For the same molecule, the GI50 (TK-10) was 23.2 µM (inactive), the GI50 (U-251) was 22.4 µM (inactive) and the GI50 (UACC-257) was 20.1 µM (inactive). For the same molecule, the GI50 (UACC-62) was 17.1 µM (inactive) and the GI50 (UO-31) was 23 µM (inactive).
